In patent US4414388A, “1-Oxo-1H-thiazolo[3,2-a]pyrimidine-2-carboxamides” (Pfizer Inc., priority 1981, dated 1983):

Key:
IgE = experiment: passive cutaneous anaphylaxis (PCA) test, oral, IgE (reaginic antiserum) site; type: in vivo, rat; details: Table I, 1 mg./kg.
Experimental: (§1) The antiallergy property of the compounds of this invention is evaluated by the passive cutaneous anaphylaxis (PCA) test (Ovary, J. Immun., 81, 355, 1958). In the PCA test, normal animals are injected intradermally (i.d.) with antibodies contained in serum obtained from actively sensitized animals. The animals are then challenged intravenously with antigen mixed with a dye such as Evans' Blue. The increased capillary permeability caused by the antigen-antibody reaction causes the dye to leak from the site of the antibody injection. The test animals are then asphyxiated and the intensity of the reaction determined by measuring the diameter and intensity of the blue coloration on the inner surface of the animals' skin.
(§2) The PCA test is a measure of the anti-allergic (especially anti-asthmatic) activity of a compound. Compounds which inhibit a positive PCA test induced by the rat immunochemical counterpart of human immunoglobulin E (IgE), or reagin, are considered to have anti-allergic activity (C. Mota, Ann. N.Y. Acad. Sci., 103, 264 1963). (Reagin is primarily immunoglobulin E [IgE] and is the principal immunoglobulin responsible for allergic asthma, anaphylaxis, hay fever, food sensitivities and certain manifestations of drug sensitivities, although recent evidence ascribes to the IgG class of antibodies a significant role in the mediation of allergic diseases). Such compounds when administered to a sensitized subject, human or animal, prior to the time when the subject comes into contact with antigens or substances to which it is allergic, will prevent the allergic reaction which would otherwise occur. They, therefore, provide a method for the prophylactic treatment of allergy or anaphylactic reactions of a reagin mediated nature.
(§3) To put it another way, such compounds block the release of mediators resulting from the antigen-antibody (allergic) reaction as illustrated in the PCA test using rat homocytotropic antibody--a known correlate of human reaginic antibody. Inhibition of reaginic antigen-antibody reactions in rats, the test animal of the PCA test, is regarded as representative of inhibition of human reaginic antigen-antibody reactions which occur during allergic episodes.
(§4) The ability of agents to interfere with PCA reactions is measured in male Charles River Wistar rats, 170-210 g. Reaginic antiserum, rich in IgE antibodies, is prepared according to Petillo et al., Int. Arch. Allergy, 44, 309 (1973). Hyperimmune antiserum rich in IgG antibodies to hen egg albumin is prepared according to Orange et al., J. Exptl. Med., 127, 767 (1968). Forty-eight hours prior to antigen challenge, the reaginic antiserum is injected intradermally (i.d.) into the shaved skin of a normal rat's back; 5 hours before challenge the hyperimmune antisera is similarly injected. At a third site 60 mcg. histamine dihydrochloride and 0.5 mcg. serotonin creatinine sulfate are injected i.d. just prior to antigen challenge as a check for antihistaminic, antiserotonin and unspecific types of blockage; the compounds of the instant invention or saline are then administered i.v. and immediately followed by the challenge of 5 mg. egg albumen and 2.5 mg. Evans' Blue dye in saline. In the case of oral administration Evans' Blue dye and egg albumin are given 5 minutes after administration of the drug. Thirty minutes later the animals are asphyxiated using chloroform and the skin of the back removed and reversed for observation. A score is assigned each injection site equal to the product of the diameter of the site in mm. and a grade of 0.1, 0.5, 1, 2, 3 or 4 proportional to intensity of dye coloration. The scores for a given injection site are summed for each group of five animals and compared to the saline treated controls. The difference is expressed as percent blockage due to the compound employed. […]

IgG = experiment: passive cutaneous anaphylaxis (PCA) test, oral, IgG (hyperimmune antiserum) site; type: in vivo, rat; details: Table I, 1 mg./kg.
Experimental: as §1, §2, §3, §4

anticholinergic effects = experiment: anticholinergic effects
[1] = test system: cold-restraint stress gastric ulcer; experiment: cold-restraint stressed rat assay; type: in vivo
Experimental: The effectiveness of the products of this invention as anticulcer agents is determined by the so-called cold-restraint stressed rat assay. In this test nonfasted female rats (Charles River C-D strain) weighing 70-140 gms. are administered the drug or carrier (control animals) intraperitoneally (in saline solution containing 1% carboxymethylcellulose and 0.1% Tween 80) or orally (in water) three hours before being lightly anesthetized with ether and taped in the supine position to individual sheets of plexiglass. After recovery from anesthesia, the restrained animals are positioned horizontally in a refrigerator maintained at 10°-12° C. and three hours later sacrificed by cervical dislocation. The abdomen of each rat is opened, the pylorus clamped, the stomach inflated with saline via an oral tube, the esophagus clamped and the stomach excised. The stomachs are placed in a 0.4% formaldehyde solution for approximately 30 seconds to harden the outer layers and facilitate examination. Each stomach is then cut open along the greater curvature and the glandular portion (hind stomach) examined for damage. The number of gastric erosions, their severity and the color of the stomachs is recorded. […]

[2] = plasma concentration / oral absorption in rats; type: in vivo, rat
Experimental: This is supported by the observations of plasma concentrations of 3 to 7 μg/ml one hour after oral administration of III, 50 to 300 mg/kg.

[3] = test system: ulcerogenic effects of aspirin; experiment: aspirin-induced gastric ulcer; type: in vivo; details: po; aspirin 100 mg/kg p.o.
Experimental: Compound III also protects against the ulcerogenic effects of aspirin, 100 mg/kg p.o. where dose-related effects are seen over the dose range of 10 to 1000 μg/kg, p.o. with an ED50 of 100 μg/kg. Compound III is also active in a phenylbutazone gastric ulcer model where an oral ED50 of 200 μg/kg is observed. […] "Cytoprotective," a term coined recently to describe the antiulcer effects of prostaglandins that are independent of antisecretory activity, [Robert, Advances in Prostaglandin and Thromboxane Research 2, 507 (1976); Miller et al., Gut 20, 75 (1979); Robert et al., Gastroenterology 72, 1121 (1977).] aptly characterizes the effects of compound III.

glucose tolerance = experiment: glucose tolerance; type: in vivo, rat; details: 10, 30, or 100 mg/kg p.o. with glucose 1 g/kg p.o.
Excerpt: This effect may be due to a delayed absorption of glucose related to a possible effect on gastric emptying.

[4] = test system: dextran induced release of histamine; experiment: dextran induced release of histamine into the rat peritoneal cavity; type: in vivo; details: ip
Excerpt: Compound III inhibits dextran induced release of histamine into the rat peritoneal cavity.

[5] = test system: phenylbutazone gastric ulcer; experiment: phenylbutazone gastric ulcer model; type: in vivo; details: po
Excerpt: Miller et al., Gut 20, 75 (1979); Robert et al., Gastroenterology 72, 1121 (1977).] aptly characterizes the effects of compound III.

With `O=C(Nc1nnn[nH]1)c1cnc2sc3c(n2c1=O)CCCC3` [compound III, N-(5-tetrazolyl)-1-oxo-1H-cyclohexenothiazolo[3,2-a]pyrimidine-2-carboxamide] the “Oral Activity (% of Protection) of Amides in the PCA Test, IgE 1 mg./kg.” value (IgE) was 47%, the “Oral Activity (% of Protection) of Amides in the PCA Test, IgG 1 mg./kg.” value (IgG) was 45% and the anticholinergic effects (anticholinergic effects) was “no significant anticholinergic effects”. For the same compound, the “potency in the cold-restraint stress gastric ulcer procedure and the ethanol-induced rat ulcer assay, in words” value ([1]; oral) was “highly potent”, the “potency in the cold-restraint stressed rat assay” value ([1]; rat, in vivo) was “extremely potent” and the concentration at 1 h ([2]; plasma, rat, one hour, oral 50 to 300 mg/kg, read-out: plasma concentration one hour after oral administration, rat) was 3000 to 7000 ng/mL. The “oral absorption, rat” value ([2]; ratio of comparably effective oral and intravenous doses in rat PCA test) was “good oral absorption”, the ED50 [3] was 0.1 mg/kg and the “effect on glucose tolerance” value (glucose tolerance) was “apparent dose-dependent improvement in glucose tolerance”. The ED50 [4] was 0.00033 mg/kg and the ED50 [5] was 0.2 mg/kg.
